Data: US20220251079A1, “BENZO[B][1,8]NAPHTHYRIDINE ACETIC ACID DERIVATIVES AND METHODS OF USE” (STINGTHERA, INC., priority 2019, published 2022)
pIC50: −log10 of the molar value.

Assays:
hSTING-R232 = target: T1, hSTING-R232 (Homo sapiens, UniProt Q86WV6, H232R); assay: STING Differential Scanning Fluorimetry (DSF) assay, human; format: binding; details: human STING R232-WT, 5 μM protein
T1 construct: recombinant mouse or human STING protein (aa140-379); 6xHis-SUMO elsewhere) (cleaved yes); made in house
T1 sequence (Q86WV6 140-379 H232R): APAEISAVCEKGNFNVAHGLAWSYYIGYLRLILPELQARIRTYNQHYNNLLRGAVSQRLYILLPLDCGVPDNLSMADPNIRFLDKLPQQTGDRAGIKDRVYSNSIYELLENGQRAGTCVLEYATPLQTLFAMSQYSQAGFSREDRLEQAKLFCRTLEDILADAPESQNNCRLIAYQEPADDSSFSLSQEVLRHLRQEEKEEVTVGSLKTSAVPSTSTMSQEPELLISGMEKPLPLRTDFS
Procedure, shortened: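 Purified STING C-terminal domain (aa140-379, R232), human or mouse, at 5 μM in 100 mM NaCl, 30 mM HEPES pH 7.5 with SYBR Orange, was heated at 0.5° C./min. Tm came from dF/dT; ΔTm and FC50 were derived from an 11-point 2-fold series from 300 μM, in duplicate.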

[1] = target: T2, human STING protein (140-379) (Homo sapiens, UniProt Q86WV6, H232R); assay: Radiometric filtration binding competition assay (WT_FBA_HIS-SUMO-hSWAT); details: read-out: WT-hSWAT IC50
T2 construct: 6XHIS-SUMO-hSTING (140-379); made in house; host or cells: BL-21(DE3) E. coli, pET vector
T2 sequence (Q86WV6 140-379 H232R): as above
Procedure, shortened: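 Compounds (2-fold dilutions, 8 points, top 300 μM) were preincubated for 30 min with 0.5 μM recombinant C-terminal STING domain, human residues 140-379 or mouse residues 139-328, His-SUMO tagged. Displacement of a tritium-labelled probe was read by filtration and scintillation counting. Dose-response fits gave IC50, then Ki.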

STING protein = target: T3, STING protein (Homo sapiens, UniProt Q86WV6, H232R); assay: Cell based reporter assay of IRF activation (THP1-dual-KI R232, IRF luciferase); details: THP-1; read-out: THP1-dual-KI R232_IRF(Luciferase)_Activity Maximum measured (%)
T3 construct: host or cells: THP-1 dual reporter cells, TMEM173 modified from HAQ to R232 (THP1-dual-KI R232)
T3 sequence (Q86WV6 whole entry H232R): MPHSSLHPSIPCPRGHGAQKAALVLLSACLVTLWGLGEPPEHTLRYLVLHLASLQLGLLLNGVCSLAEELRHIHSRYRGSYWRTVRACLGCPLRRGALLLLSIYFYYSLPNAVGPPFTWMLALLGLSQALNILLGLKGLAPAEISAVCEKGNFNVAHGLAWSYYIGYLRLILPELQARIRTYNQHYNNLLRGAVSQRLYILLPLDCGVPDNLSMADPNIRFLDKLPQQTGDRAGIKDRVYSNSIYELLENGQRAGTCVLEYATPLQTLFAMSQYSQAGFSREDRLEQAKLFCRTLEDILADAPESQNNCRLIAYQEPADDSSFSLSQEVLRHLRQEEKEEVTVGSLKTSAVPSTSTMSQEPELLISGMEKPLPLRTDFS
Procedure, shortened: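 THP-1 monocytes stably carried an ISG54/5×ISRE firefly luciferase IRF reporter, with TMEM173 knock-in H71R A230G Q293R (R232 variant), and there was no PMA pre-activation. Compounds were tested at 8 points, 2-fold, in duplicate from 150 µM. Cell Titer Glo was applied after supernatant removal.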

| SMILES | WT_DSF_hSWAT Tm Shift (° C.) (hSTING-R232) | pIC50 [1] | Emax (STING protein) [%] |
| --- | --- | --- | --- |
| CSc1c(Cl)ccc2c(=O)c3cc(Cl)c(N(C)C)nc3n(CC(=O)O)c12 [Compound 58, sodium 2-(3,8-dichloro-2-(dimethylamino)-9-(methylthio)-5-oxobenzo[b][1,8]naphthyridin-10(5H)-yl)acetate] | D (“D” > 7° C.) | > 4.70 | > 50 |
| CCN(CCOC)c1nc2c(cc1Cl)c(=O)c1ccc(Cl)c(SC)c1n2CC(=O)O [Compound 59, sodium 2-(3,8-dichloro-2-(ethyl(2-methoxyethyl)amino)-9-(methylthio)-5-oxobenzo[b][1,8]naphthyridin-10(5H)-yl)acetate] | D (“D” > 7° C.) | 4.00 to 4.70 | > 50 |
| CCOc1c(Cl)ccc2c(=O)c3ccc(NCC4CCOCC4)nc3n(CC(=O)O)c12 [Compound 60, sodium 2-(8-chloro-9-ethoxy-5-oxo-2-(((tetrahydro-2H-pyran-4-yl)methyl)amino)benzo[b][1,8]naphthyridin-10(5H)-yl)acetate] | D (“D” > 7° C.) | 4.00 to 4.70 | > 50 |
| Cc1ccc2c(=O)c3ccc(N(C)C)nc3n(CC(=O)O)c2c1N(C)C [Compound 61, sodium 2-(2,9-bis(dimethylamino)-8-methyl-5-oxobenzo[b][1,8]naphthyridin-10(5H)-yl)acetate] | D (“D” > 7° C.) | 4.00 to 4.70 | > 50 |
| CSc1c(C)ccc2c(=O)c3ccc(N(C)C)nc3n(CC(=O)O)c12 [Compound 62, sodium 2-(2-(dimethylamino)-8-methyl-9-(methylthio)-5-oxobenzo[b][1,8]naphthyridin-10(5H)-yl)acetate] | D (“D” > 7° C.) | 4.00 to 4.70 | > 50 |
| CSc1c(C)ccc2c(=O)c3ccc(C(C)(C)C)nc3n(CC(=O)O)c12 [Compound 63, sodium 2-(2-(tert-butyl)-8-methyl-9-(methylthio)-5-oxobenzo[b][1,8]naphthyridin-10(5H)-yl)acetate] | D (“D” > 7° C.) | 4.00 to 4.70 | > 50 |
| Cc1ccc2c(=O)c3ccc(C(C)(C)C#N)nc3n(CC(=O)O)c2c1N(C)C [Compound 64, sodium 2-(2-(2-cyanopropan-2-yl)-9-(dimethylamino)-8-methyl-5-oxobenzo[b][1,8]naphthyridin-10(5H)-yl)acetate] | D (“D” > 7° C.) | 4.00 to 4.70 | > 50 |
| CSc1c(Cl)ccc2c(=O)c3ccc(C=C4COC4)nc3n(CC(=O)O)c12 [Compound 65, 2-(8-chloro-9-(methylthio)-2-(oxetan-3-ylidenemethyl)-5-oxobenzo[b][1,8]naphthyridin-10(5H)-yl)acetic acid] | D (“D” > 7° C.) | 4.00 to 4.70 | > 50 |
| CO[C@H]1C[C@@H](N(C)c2ccc3c(=O)c4ccc(C)c(N(C)C)c4n(CC(=O)O)c3n2)C1 [Compound 67, 2-(9-(dimethylamino)-2-(((1s,3s)-3-methoxycyclobutyl)(methyl)amino)-8-methyl-5-oxobenzo[b][1,8]naphthyridin-10(5H)-yl)acetic acid] | D (“D” > 7° C.) | > 4.70 | > 50 |
| CSc1c(Cl)ccc2c(=O)c3ccc(C4(C)CC4)nc3n(CC(=O)O)c12 [Compound 68, sodium 2-(8-chloro-2-(1-methylcyclopropyl)-9-(methylthio)-5-oxobenzo[b][1,8]naphthyridin-10(5H)-yl)acetate] | D (“D” > 7° C.) | > 4.70 | > 50 |
| CO[C@H]1C[C@@H](N(C)c2ccc3c(=O)c4ccc(C)c(SC)c4n(CC(=O)O)c3n2)C1 [Compound 69, 2-(2-(((1s,3s)-3-methoxycyclobutyl)(methyl)amino)-8-methyl-9-(methylthio)-5-oxobenzo[b][1,8]naphthyridin-10(5H)-yl)acetic acid] | D (“D” > 7° C.) | > 4.70 | > 50 |

Other lines, results leading:

| WT_DSF_hSWAT Tm Shift (° C.) (hSTING-R232) | pIC50 [1] | Emax (STING protein) [%] | SMILES |
| --- | --- | --- | --- |
| D (“D” > 7° C.) | 4.00 to 4.70 | 5 to 25 | CSc1c(Cl)ccc2c(=O)c3ccc(N(C)CCn4ccnc4)nc3n(CC(=O)O)c12 [Compound 71, Sodium 2-(8-chloro-2-{[2-(imidazole-1-yl)ethyl](methyl)amino}-9-(methylsulfanyl)-5-oxobenzo[b]1,8-naphthyridin-10-yl)acetate] |
| D (“D” > 7° C.) | 3.52 to 4.00 | 5 to 25 | CCOc1c(Cl)ccc2c(=O)c3ccc(N(C)CCn4ccnc4)nc3n(CC(=O)O)c12 [Compound 72, sodium 2-(8-chloro-9-ethoxy-2-{[2-(imidazole-1-yl)ethyl](methyl)amino}-5-oxobenzo[b]1,8-naphthyridin-10-yl)acetate] |
| D (“D” > 7° C.) | > 4.70 | > 50 | CSc1c(Cl)ccc2c(=O)c3ccc(N(C)c4ccccc4)nc3n(CC(=O)O)c12 [Compound 73, sodium 2-(8-chloro-2-(methyl(phenyl)amino)-9-(methylthio)-5-oxobenzo[b][1,8]naphthyridin-10(5H)-yl)acetate] |
| D (“D” > 7° C.) | 3.52 to 4.00 | > 50 | COCCN(c1ccc2c(=O)c3ccc(Cl)c(SC)c3n(CC(=O)O)c2n1)[C@H]1C[C@@H](OC)C1 [Compound 74, sodium 2-(8-chloro-2-(((1s,3s)-3-methoxycyclobutyl)(2-methoxyethyl)amino)-9-(methylthio)-5-oxobenzo[b][1,8]naphthyridin-10(5H)-yl)acetate] |
| D (“D” > 7° C.) | 4.00 to 4.70 | > 50 | COCCN(C)c1nc2c(cc1Cl)c(=O)c1ccc(Cl)c(SC)c1n2CC(=O)O [Compound 75, sodium 2-(3,8-dichloro-2-((2-methoxyethyl)(methyl)amino)-9-(methylthio)-5-oxobenzo[b][1,8]naphthyridin-10(5H)-yl)acetate] |
| D (“D” > 7° C.) | > 4.70 | > 50 | CO[C@H]1C[C@@H](N(C)c2nc3c(cc2Cl)c(=O)c2ccc(Cl)c(SC)c2n3CC(=O)O)C1 [Compound 77, 2-(3,8-dichloro-2-(((1s,3s)-3-methoxycyclobutyl)(methyl)amino)-9-(methylthio)-5-oxobenzo[b][1,8]naphthyridin-10(5H)-yl)acetic acid] |
| D (“D” > 7° C.) | 4.00 to 4.70 | > 50 | C=Cc1c(Cl)ccc2c(=O)c3ccc(N(C)C)nc3n(CC(=O)O)c12 [Compound 78, 2-(8-chloro-2-(dimethylamino)-5-oxo-9-vinylbenzo[b][1,8]naphthyridin-10(5H)-yl)acetic acid] |
| D (“D” > 7° C.) | 4.00 to 4.70 | > 50 | CN(C)c1ccc2c(=O)c3ccc(Cl)c(-c4ccccc4)c3n(CC(=O)O)c2n1 [Compound 79, 2-(8-chloro-2-(dimethylamino)-5-oxo-9-phenylbenzo[b][1,8]naphthyridin-10(5H)-yl)acetic acid] |
| D (“D” > 7° C.) | 4.00 to 4.70 | > 50 | CN(C)c1c(Cl)ccc2c(=O)c3ccc(N(C)CCn4ccnc4)nc3n(CC(=O)O)c12 [Compound 80, sodium 2-[8-chloro-9-(dimethylamino)-2-{[2-(imidazole-1-yl)ethyl](methyl)amino}-5-oxobenzo[b]1,8-naphthyridin-10-yl]acetate] |
| D (“D” > 7° C.) | 4.00 to 4.70 | 5 to 25 | CSc1c(Cl)ccc2c(=O)c3ccc(N(C)CCn4ccnc4C)nc3n(CC(=O)O)c12 [Compound 81, sodium 2-(8-chloro-2-{methyl[2-(2-methylimidazol-1-yl)ethyl]amino}-9-(methylsulfanyl)-5-oxobenzo[b]1,8-naphthyridin-10-yl)acetate] |
| D (“D” > 7° C.) | 3.52 to 4.00 | 5 to 25 | Cc1nccn1CCN(C)c1ccc2c(=O)c3ccc(Cl)c(N(C)C)c3n(CC(=O)O)c2n1 [Compound 82, sodium 2-[8-chloro-9-(dimethylamino)-2-{methyl[2-(2-methylimidazol-1-yl)ethyl]amino}-5-oxobenzo[b]1,8-naphthyridin-10-yl]acetate] |
